Results published in PubChem BioAssay AID1259407 (Chemical Carcinogenesis Research Information System (CCRIS), 2018).
Activity calls are given as the source filed them. No rule for the calls is given here.

System: CCRIS mutagenicity, Ames/micronucleus/aberration tests
Test: CCRIS mutagenicity studies

Question: With `Cc1ccc(NC2OC[C@@H](O)[C@H](O)[C@H]2O)cc1` (stereo not given in full) as the compound, how does the mutagenic call (Test System: AMES SALMONELLA TYPHIMURIUM, Strain/Indicator: TA100, Metabolic Activation: NONE, Method: LIQUID INCUBATION) read?
Answer: active; positive

Question: Which results are given for `COc1cc(Cl)c(Cl)c(Cl)c1O`?
Answer: mutagenic call (Test System: CHINESE HAMSTER V-79, Strain/Indicator: V-79/6-THIOGUANINE, Metabolic Activation: NONE, Method: STANDARD PLATE): active; positive; mutagenic call (Test System: CHINESE HAMSTER V-79, Strain/Indicator: V-79/6-THIOGUANINE, Metabolic Activation: PRIMARY RAT HEPATOCYTES, Method: STANDARD PLATE): inactive; negative

Question: Which results are given for `Cc1ccc(NC(=O)c2ccc(CN3CCN(C)CC3)cc2)cc1Nc1nccc(-c2cccnc2)n1`?
Answer: mutagenic call (End Point: IN VITRO CHROMOSOMAL ABERRATIONS, Test System: CHINESE HAMSTER EMBRYO (CHE), Metabolic Activation: NONE): active; positive (structural and numerical changes); mutagenic call (End Point: IN VITRO CHROMOSOMAL ABERRATIONS, Test System: INDIAN MUNTJAK FIBROBLASTS (IMF), Metabolic Activation: NONE): active; positive (numerical changes); mutagenic call (End Point: IN VITRO CHROMOSOMAL ABERRATIONS, Test System: NORMAL HUMAN DERMAL FIBROBLASTS (NHDF), Metabolic Activation: NONE): active; positive (structural changes)

Question: Which results are given for `C=CCc1[c-]cccc1.C=CCc1[c-]cccc1.[Pt+2].c1ccc(P(c2ccccc2)c2ccccc2)cc1`?
Answer: mutagenic call (Test System: AMES SALMONELLA TYPHIMURIUM, Strain/Indicator: TA92, Metabolic Activation: NONE, Method: STANDARD PLATE): inactive; negative; mutagenic call (Test System: AMES SALMONELLA TYPHIMURIUM, Strain/Indicator: TA98, Metabolic Activation: NONE, Method: STANDARD PLATE): active; positive; mutagenic call (Test System: AMES SALMONELLA TYPHIMURIUM, Strain/Indicator: TA100, Metabolic Activation: NONE, Method: STANDARD PLATE): inactive; negative; mutagenic call (Test System: AMES SALMONELLA TYPHIMURIUM, Strain/Indicator: TA2410, Metabolic Activation: NONE, Method: STANDARD PLATE): inactive; negative

Question: Which results are given for `Oc1ccc(-c2ccccc2)cc1`?
Answer: mutagenic call (Test System: AMES SALMONELLA TYPHIMURIUM, Strain/Indicator: TA98, Metabolic Activation: RAT, LIVER, S-9, AROCLOR 1254, Method: STANDARD PLATE): active; positive; mutagenic call (Test System: AMES SALMONELLA TYPHIMURIUM, Strain/Indicator: TA1535, Metabolic Activation: RAT, LIVER, S-9, AROCLOR 1254, Method: STANDARD PLATE): inactive; negative

Question: With `COC(=O)NC(=S)Nc1ccccc1NC(=S)NC(=O)OC` as the compound, how does the mutagenic call (Test System: AMES SALMONELLA TYPHIMURIUM, Strain/Indicator: TA97, Metabolic Activation: HAMSTER, LIVER, S-9, AROCLOR 1254 (10 OR 30%), Method: PREINCUBATION) read?
Answer: inactive; negative

Question: What about the mutagenic call (Test System: AMES SALMONELLA TYPHIMURIUM, Strain/Indicator: TA97, Metabolic Activation: NONE, Method: PREINCUBATION) of the same compound?
Answer: inactive; negative

Question: And the mutagenic call (Test System: AMES SALMONELLA TYPHIMURIUM, Strain/Indicator: TA97, Metabolic Activation: RAT, LIVER, S-9, AROCLOR 1254 (10 OR 30%), Method: PREINCUBATION)?
Answer: inactive; negative

Question: And the mutagenic call (Test System: AMES SALMONELLA TYPHIMURIUM, Strain/Indicator: TA98, Metabolic Activation: HAMSTER, LIVER, S-9, AROCLOR 1254 (10 OR 30%), Method: PREINCUBATION)?
Answer: inactive; negative

Question: What about the mutagenic call (Test System: AMES SALMONELLA TYPHIMURIUM, Strain/Indicator: TA98, Metabolic Activation: HAMSTER, LIVER, S-9, AROCLOR 1254 (30%), Method: PREINCUBATION) of the same compound?
Answer: active; positive

Question: And the mutagenic call (Test System: AMES SALMONELLA TYPHIMURIUM, Strain/Indicator: TA98, Metabolic Activation: NONE, Method: PREINCUBATION)?
Answer: inactive; negative

Question: What about the mutagenic call (Test System: AMES SALMONELLA TYPHIMURIUM, Strain/Indicator: TA98, Metabolic Activation: RAT, LIVER, S-9, AROCLOR 1254 (10 OR 30%), Method: PREINCUBATION) of the same compound?
Answer: inactive; negative

Question: What about the mutagenic call (Test System: AMES SALMONELLA TYPHIMURIUM, Strain/Indicator: TA98, Metabolic Activation: RAT, LIVER, S-9, AROCLOR 1254 (30%), Method: PREINCUBATION) of the same compound?
Answer: inactive; negative

Question: What about the mutagenic call (Test System: AMES SALMONELLA TYPHIMURIUM, Strain/Indicator: TA100, Metabolic Activation: HAMSTER, LIVER, S-9, AROCLOR 1254 (10 OR 30%), Method: PREINCUBATION) of the same compound?
Answer: inactive; negative

Question: What about the mutagenic call (Test System: AMES SALMONELLA TYPHIMURIUM, Strain/Indicator: TA100, Metabolic Activation: HAMSTER, LIVER, S-9, AROCLOR 1254 (30%), Method: PREINCUBATION) of the same compound?
Answer: active; positive

Question: What about the mutagenic call (Test System: AMES SALMONELLA TYPHIMURIUM, Strain/Indicator: TA100, Metabolic Activation: NONE, Method: PREINCUBATION) of the same compound?
Answer: inactive; negative

Question: And the mutagenic call (Test System: AMES SALMONELLA TYPHIMURIUM, Strain/Indicator: TA100, Metabolic Activation: RAT, LIVER, S-9, AROCLOR 1254 (10 OR 30%), Method: PREINCUBATION)?
Answer: inactive; negative

Question: And the mutagenic call (Test System: AMES SALMONELLA TYPHIMURIUM, Strain/Indicator: TA1535, Metabolic Activation: HAMSTER, LIVER, S-9, AROCLOR 1254 (10 OR 30%), Method: PREINCUBATION)?
Answer: inactive; negative

Question: What about the mutagenic call (Test System: AMES SALMONELLA TYPHIMURIUM, Strain/Indicator: TA1535, Metabolic Activation: NONE, Method: PREINCUBATION) of the same compound?
Answer: inactive; negative

Question: And the mutagenic call (Test System: AMES SALMONELLA TYPHIMURIUM, Strain/Indicator: TA1535, Metabolic Activation: RAT, LIVER, S-9, AROCLOR 1254 (10 OR 30%), Method: PREINCUBATION)?
Answer: inactive; negative

Question: And the mutagenic call (Test System: AMES SALMONELLA TYPHIMURIUM, Strain/Indicator: TA1537, Metabolic Activation: HAMSTER, LIVER, S-9, AROCLOR 1254 (30%), Method: PREINCUBATION)?
Answer: inactive; negative

Question: What about the mutagenic call (Test System: AMES SALMONELLA TYPHIMURIUM, Strain/Indicator: TA1537, Metabolic Activation: NONE, Method: PREINCUBATION) of the same compound?
Answer: inactive; negative

Question: What about the mutagenic call (Test System: AMES SALMONELLA TYPHIMURIUM, Strain/Indicator: TA1537, Metabolic Activation: RAT, LIVER, S-9, AROCLOR 1254 (30%), Method: PREINCUBATION) of the same compound?
Answer: inactive; negative
